Laboratory results from patent publication US9089514B2, “Composition and method for inhibiting biogenic sulfide generation” (Arkion Life Sciences, priority 2010, dated 2015).
“And” between values parts separate entries of the source, which are not always exact repeats. Equal values may be shown once.

What was measured:
Format in all cases: cell-based, Prudhoe Bay sulfate reducing bacteria
[1] = tested on: sulfate reducing bacteria (SRB) biofilms; experiment: Test Series #1: inhibition of H2S biogeneration from SRB biofilms on granite chips; settings: for Sulfides Day 1: day 1 after treatment; for Sulfides Day 1 / Sulfides Day 2 / Sulfides Day 3: THPS 51 ppmw, AQ or AHQ (AHQ-slurry-1) 25 ppmw per tube, 30° C.; for Sulfides Day 2: day 2 after treatment; for Sulfides Day 3: day 3 after treatment
Method: (§1) 1. Load 7 grams of crushed granite chips into 15-ml culture tubes; autoclave.
(§2) 2. Prepare an inoculum by adding a culture of Prudhoe Bay sulfate reducing bacteria to a flask containing an appropriate iron-free culture medium for sulfate reducing bacteria that further contains 90% deaerated artificial sea water. Incubate bacteria anaerobically at 30° C. for 3-4 days.
(§3) 3. Fill each 15 ml culture tube containing granite chips with the inoculum; incubate tubes anaerobically at 30° C. for 7-11 days in a Lab-Line Orbit Environ-Shaker set at 30° C. and 120 rpm. All incubation steps for the bacteria in the culture tubes were performed is in the Environ-Shaker.
(§4) 4. Pour off spent medium and fill with fresh medium. Incubate for 6-7 days then replace medium with fresh medium again. Repeat medium change after 4-8 days and incubate for 3-5 additional days.
(§5) 5. Treat the biofilms that have grown on the granite chips as described below. Incubate at 30° C.
(§6) 6. Monitor the aqueous sulfide content in the tubes daily for up to three days, beginning the day after treatment, to determine the effectiveness of each treatment option on generation of hydrogen sulfide. Sulfide dissolved in the medium was determined in mg/L using Hach Method 8131 for the Hach DR-2010 spectrophotometer. The method utilizes methylene blue to measure total sulfides. The sulfide level in each tube was determined by gently inverting the tube several times, uncapping the tube and quickly removing a 125 μl aliquot of solution, and recapping the tube. The aliquot was diluted in 24.9 ml of deionized water in a quartz cuvette for the Hach procedure. The procedure is summarized in Table 1 for three separate test series.
Following the growth of the sulfate reducing bacteria (SRB) biofilms on the granite chips in the culture tubes, the biofilms were treated by injecting the appropriate test solution and then gently tumbling the tubes for two minutes on a Barnstead/Thermolyne Labquake Tube Shaker to allow the treatment solution to dynamically contact the biofilms.
Test compound solutions were injected into the tubes. THPS was added to 51 ppmw per tube. AQ and AHQ-slurry-1 were added to 25 ppmw AQ or AHQ per tube. Each tube contained about 14 ml of medium. The tubes were tumbled for two minutes, then moved to a nitrogen glove bag. The liquid was removed and the tubes were washed once with is medium and then refilled with medium. The tubes were then tumbled once more for two minutes before being placed in a Lab-Line Orbit Environ-Shaker set at 30° C. and 120 rpm for incubation.
Control tubes contained biofilms on granite chips and culture medium, but no test compound. Control tubes were otherwise handled as described above for test-compound tubes.
In THPS-treated tubes all of the residual THPS was removed so that biocidal activity occurred only during the contact time while tumbling. In AQ and AHQ treated tubes, residual test solutions were allowed to remain in the tubes to simulate treatment in a tank, where AQ or AHQ settles in the biofilm/sludge at the bottom of the vessel. Treatments were performed in duplicate.

[2] = tested on: sulfate reducing bacteria (SRB) biofilms; experiment: Test Series #2: AQ, AHQ and AQ:AHQ slurries, sulfide monitoring in SRB biofilm tubes; settings: for Sulfides Day 1: day 1, same combined mass of active AQ plus AHQ; for Sulfides Day 1 / Sulfides Day 2 / Sulfides Day 3: AHQ-slurry-2 used; for Sulfides Day 2: day 2, same combined mass of active AQ plus AHQ; for Sulfides Day 3: day 3, same combined mass of active AQ plus AHQ
Method: as §1, §2, §3, §4, §5, §6
(§7) This test series was performed to further compare the efficacy of slurries of AHQ and AQ and combinations of AHQ/AQ in slurries in controlling H2S emissions. AHQ-slurry-2 was used in this series of experiments. The tests were performed by first removing the spent medium from the tubes, refilling with fresh medium, treating with the test solution, tumbling the tubes for two minutes, and then incubating at 30° C. in the Lab-Line Orbit Environ-Shaker.
Each test was made with the same combined mass of active AQ plus AHQ. Results, as summarized in Table 3 and FIG. 2, confirmed the results of Series #1 in that all treatments were effective compared with the control.

[3] = tested on: sulfate reducing bacteria (SRB) biofilms; experiment: Test Series #3b: simulated gravity settling, AQ vs AHQ-slurry-2, sulfide monitoring
Method: as §6
(§8) Gravity settling in the tank was simulated by spinning the culture tubes after treatment in a laboratory centrifuge at 2000 to 2700 rpm. The AQ or AHQ particles then “settled” to the bottom of the tube and were able to deposit into the biofilm on the granite chips. The medium above the granite chips was then removed and replaced with fresh medium. The tubes were then incubated at 30° C. in the Lab-Line Orbit Environ-Shaker. The concentration of AQ or AHQ in the removed medium was analyzed to determine the amount of AQ or AHQ deposited in the biofilm. Experiments were run with duplicate samples.
Test Series #3b was performed with the same procedure as Test Series #3a to compare the efficacy of the AQ test mixture (AQ) with that of AHQ-slurry-2 at the same AHQ or AQ mass loading (0.254 mg). The tubes were spun for 20 seconds.

[4] = tested on: sulfate reducing bacteria (SRB) biofilms; experiment: AHQ di-alkali salt solution vs AHQ-slurry-2 by the Test Series #2 procedure; settings: 18 ppmw AHQ
Method: as §6, §7
Each test treatment contained 18 ppmw AHQ. […] However, under some circumstances, larger particle sizes are preferable. […]

[5] = tested on: sulfate reducing bacteria (SRB) biofilms; experiment: Test Series #3a: simulated gravity settling in tank (centrifugation), sulfide monitoring; settings: 0.254 mg AHQ
Method: as §6, §8
Two series of tests were performed with this procedure. Series #3a compared the efficacy of treating with the AHQ di-alkali salt test solution (AHQ) and the AHQ test mixture #2 (AHQ-slurry-2) at the same AHQ mass loading (0.254 mg AHQ). Two different centrifugation times (20 sec, 60 sec) were utilized in Test Series #3a to represent two different tank residence times.

Compound	inhibiting H2S biogeneration from SRB biofilms (comparison in words) [1]	Sulfides Day 1 [1]	Sulfides Day 2 [1]	Sulfides Day 3 [1]	inhibiting the generation of H2S (comparison in words) [2]	Sulfides Day 1 [2]	Sulfides Day 2 [2]	Sulfides Day 3 [2]	inhibiting H2S generation (comparison in words) [3]	reducing sulfides (comparison in words) [4]	sulfides on day 3 of treatment ([4]; Test Series #2 procedure (no settling))	Sulfides Day 1 ([5]; centrifugation 20 sec)	Sulfides Day 2 ([5]; centrifugation 20 sec)	Sulfides Day 3 ([5]; centrifugation 20 sec)	Sulfides Day 1 ([5]; centrifugation 60 sec)	Sulfides Day 2 ([5]; centrifugation 60 sec)	Sulfides Day 3 ([5]; centrifugation 60 sec)	Sulfides Day 1 ([3]; spun 20 sec, 0.254 mg AHQ or AQ, day 1)	Sulfides Day 2 ([3]; spun 20 sec, 0.254 mg AHQ or AQ, day 2)
Oc1c2ccccc2c(O)c2ccccc12 [AHQ, anthrahydroquinone]	superior to THPS, AQ, and the combination of THPS and AQ	9.2 mg/L and 11.2 mg/L	23 mg/L and 27 mg/L	30.6 mg/L and 31 mg/L	more effective than AQ solution alone or AHQ/AQ neutral slurry combinations	22.2 mg/L and 19.6 mg/L	31 mg/L and 26.6 mg/L	36.8 mg/L and 36.4 mg/L	superior to AQ in inhibiting H2S generation										
[Na+].[Na+].[O-]c1c2ccccc2c([O-])c2ccccc12 [AHQ, dialkali salt solution, anthrahydroquinone di-alkali salt]										superior to AHQ neutral slurry in reducing sulfides	7.4 mg/L	29 mg/L and 31 mg/L	37.6 mg/L and 45.2 mg/L	42 mg/L and 48.6 mg/L	36.6 mg/L and 21.8 mg/L	50.8 mg/L and 37 mg/L	53.6 mg/L and 42.6 mg/L		
O=C1c2ccccc2C(=O)c2ccccc21 [AQ, anthraquinone]	comparable to THPS treatment	22.6 mg/L and 19 mg/L	41.2 mg/L and 34.6 mg/L	46.2 mg/L and 40.8 mg/L		33.2 mg/L and 30.4 mg/L	40 mg/L and 38.8 mg/L	44.4 mg/L and 43.2 mg/L										43.8 mg/L and 33.8 mg/L	54.2 mg/L and 50.2 mg/L
tetrakishydroxymethylphosphonium sulfate [THPS]		18 mg/L and 19.8 mg/L	39.6 mg/L and 38.4 mg/L	46.2 mg/L															
